Tested on: MT4
Test: Cytotoxic activity against human MT4 cells assessed as reduction in cell viability after 72 hrs by MTT assay
Format: functional

SMILES | CTD50 [µM]
CC(C)C1=CC2Oc3cc(O)ccc3[C@@H]3OC[C@H](C1)[C@]23C (some centres undefined) | 150.3
COc1cc2c(cc1O)[C@@H]1OC[C@@H]3CC(C(C)C)=CC2[C@@]31C (some centres undefined) | 0.93
COc1cc2c(cc1O)C1C=C(C(C)C)C[C@H]3CO[C@@H]2[C@@]13C (some centres undefined) | 150
COc1cccc2c1C(=O)c1c(O)c3c(c(O)c1C2=O)C[C@@](O)(C(=O)CO)C[C@@H]3O[C@H]1C[C@H](N)[C@H](O)[C@H](C)O1 [DOXORUBICIN] | 2.76
COc1cc2c(c(OC)c1OC)C1C=C(C(C)C)C[C@H]3CO[C@@H]2[C@@]13C (some centres undefined) | 200.6
COc1cc2c(c(OC)c1O)C1C=C(C(C)C)C[C@H]3CO[C@@H]2[C@@]13C (some centres undefined) | 224.2
COc1cc(OC)c2c(c1OC)C1C=C(C(C)C)C[C@H]3CO[C@@H]2[C@@]13C (some centres undefined) | >250

Tested on: MT4
Test: Induction of apoptosis in human MT4 cells at 0.9 uM after 24 hrs by propidium iodide staining based FACS flow cytometry (reference value: 2.3%)
Format: functional

SMILES | Activity [%]
COc1cc2c(cc1O)[C@@H]1OC[C@@H]3CC(C(C)C)=CC2[C@@]31C (some centres undefined) | 12.8

Tested on: MT4
Test: Induction of apoptosis in human MT4 cells at 0.9 uM after 72 hrs by propidium iodide staining based FACS flow cytometry (reference value: 5.5%)
Format: functional

SMILES | Activity [%]
COc1cc2c(cc1O)[C@@H]1OC[C@@H]3CC(C(C)C)=CC2[C@@]31C (some centres undefined) | 27.7

Tested on: MT4
Test: Induction of apoptosis in human MT4 cells at 0.9 uM after 48 hrs by propidium iodide staining based FACS flow cytometry (reference value: 3.5%)
Format: functional

SMILES | Activity [%]
COc1cc2c(cc1O)[C@@H]1OC[C@@H]3CC(C(C)C)=CC2[C@@]31C (some centres undefined) | 16.3

Tested on: not listed separately
Test: Cytotoxic activity against human U937 cells assessed as reduction in cell viability after 72 hrs by MTT assay
Format: functional, U-937

SMILES | CTD50 [µM]
CC(C)C1=CC2Oc3cc(O)ccc3[C@@H]3OC[C@H](C1)[C@]23C (some centres undefined) | 164.3
COc1cc2c(cc1O)[C@@H]1OC[C@@H]3CC(C(C)C)=CC2[C@@]31C (some centres undefined) | 50
COc1cc2c(cc1O)C1C=C(C(C)C)C[C@H]3CO[C@@H]2[C@@]13C (some centres undefined) | 210
COc1cccc2c1C(=O)c1c(O)c3c(c(O)c1C2=O)C[C@@](O)(C(=O)CO)C[C@@H]3O[C@H]1C[C@H](N)[C@H](O)[C@H](C)O1 [DOXORUBICIN] | 0.17
COc1cc2c(c(OC)c1OC)C1C=C(C(C)C)C[C@H]3CO[C@@H]2[C@@]13C (some centres undefined) | 66.9
COc1cc2c(c(OC)c1O)C1C=C(C(C)C)C[C@H]3CO[C@@H]2[C@@]13C (some centres undefined) | 136.4
COc1cc(OC)c2c(c1OC)C1C=C(C(C)C)C[C@H]3CO[C@@H]2[C@@]13C (some centres undefined) | 116.3

Tested on: not listed separately
Test: Cytotoxic activity against human CEM13 cells assessed as reduction in cell viability after 72 hrs by MTT assay
Format: functional

SMILES | CTD50 [µM]
CC(C)C1=CC2Oc3cc(O)ccc3[C@@H]3OC[C@H](C1)[C@]23C (some centres undefined) | 111.9
COc1cc2c(cc1O)[C@@H]1OC[C@@H]3CC(C(C)C)=CC2[C@@]31C (some centres undefined) | 93.3
COc1cc2c(cc1O)C1C=C(C(C)C)C[C@H]3CO[C@@H]2[C@@]13C (some centres undefined) | 136.7
COc1cccc2c1C(=O)c1c(O)c3c(c(O)c1C2=O)C[C@@](O)(C(=O)CO)C[C@@H]3O[C@H]1C[C@H](N)[C@H](O)[C@H](C)O1 [DOXORUBICIN] | 3.44
COc1cc2c(c(OC)c1OC)C1C=C(C(C)C)C[C@H]3CO[C@@H]2[C@@]13C (some centres undefined) | 49.4
COc1cc2c(c(OC)c1O)C1C=C(C(C)C)C[C@H]3CO[C@@H]2[C@@]13C (some centres undefined) | 157.6
COc1cc(OC)c2c(c1OC)C1C=C(C(C)C)C[C@H]3CO[C@@H]2[C@@]13C (some centres undefined) | 81.4
